# Test results reported in PubChem BioAssay (NCI).
#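 The compound was tested at five concentrations on cells cultured in 96-well plates, with a 48-hour exposure period. Abbreviation: GI50, concentration required for 50% inhibition of growth. Definition used: TGI = concentration required for complete inhibition of growth.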
# Experiments:
# Test in all cases: growth of human tumour cells (NCI), 48 h
# U251 CNS = system: U251 CNS
# HOP-92 NSCLC = system: HOP-92 NSCLC
# 786-0 renal = system: 786-0 renal
# HCC-2998 colon = system: HCC-2998 colon
# HL-60(TB) leukemia = system: HL-60(TB) leukemia
# SK-MEL-28 melanoma = system: SK-MEL-28 melanoma
# OVCAR-5 ovarian = system: OVCAR-5 ovarian
# DU-145 prostate = system: DU-145 prostate
# COLO 205 colon = system: COLO 205 colon
# CAKI-1 renal = system: CAKI-1 renal
# T-47D breast = system: T-47D breast
# SK-MEL-5 melanoma = system: SK-MEL-5 melanoma
# CCRF-CEM leukemia = system: CCRF-CEM leukemia
# MALME-3M melanoma = system: MALME-3M melanoma
# RXF 393 renal = system: RXF 393 renal
# OVCAR-4 ovarian = system: OVCAR-4 ovarian
# NCI-H522 lung = system: NCI-H522 lung
# M14 melanoma = system: M14 melanoma
# RPMI-8226 leukemia = system: RPMI-8226 leukemia
# OVCAR-3 ovarian = system: OVCAR-3 ovarian
# MDA-MB-231 breast = system: MDA-MB-231 breast
# MDA-MB-435 = system: MDA-MB-435
# UACC-62 melanoma = system: UACC-62 melanoma
# SK-MEL-2 melanoma = system: SK-MEL-2 melanoma
# SF-539 CNS = system: SF-539 CNS
# UO-31 renal = system: UO-31 renal
# SW-620 colon = system: SW-620 colon
# HT29 colon = system: HT29 colon
# OVCAR-8 ovarian = system: OVCAR-8 ovarian
# SF-295 CNS = system: SF-295 CNS
# HS 578T breast = system: HS 578T breast
# LOX IMVI melanoma = system: LOX IMVI melanoma
# IGROV1 ovarian = system: IGROV1 ovarian
# BT-549 breast = system: BT-549 breast
# EKVX NSCLC = system: EKVX NSCLC
# NCI-H226 lung = system: NCI-H226 lung
# SF-268 CNS = system: SF-268 CNS
# A498 renal = system: A498 renal
# NCI-H460 lung = system: NCI-H460 lung
# MOLT-4 leukemia = system: MOLT-4 leukemia
# SNB-19 CNS = system: SNB-19 CNS
# ACHN renal = system: ACHN renal
# HOP-62 NSCLC = system: HOP-62 NSCLC
# NCI-H23 lung = system: NCI-H23 lung
# SN12C renal = system: SN12C renal
# A549 NSCLC = system: A549 NSCLC
# MCF7 breast = system: MCF7 breast
# HCT-15 colon = system: HCT-15 colon
# HCT-116 colon = system: HCT-116 colon
# PC-3 prostate = system: PC-3 prostate
# NCI/ADR-RES ovarian = system: NCI/ADR-RES ovarian
# TK-10 renal = system: TK-10 renal
# UACC-257 melanoma = system: UACC-257 melanoma
# SK-OV-3 ovarian = system: SK-OV-3 ovarian
# K-562 leukemia = system: K-562 leukemia
# KM12 colon = system: KM12 colon
smiles,measurement,setting,value
C/C(=C\c1ccn(-c2ccc(N)cc2C(F)(F)F)n1)[C@@H]1C[C@@H]2O[C@]2(C)CCC[C@H](C)[C@H](O)[C@@H](C)C(=O)C(C)(C)[C@@H](O)CC(=O)O1,GI50,U251 CNS,386 nM
same,TGI,U251 CNS,> 11100 nM
same,GI50,HOP-92 NSCLC,1270 nM
same,TGI,HOP-92 NSCLC,> 11100 nM
same,GI50,786-0 renal,569 nM
same,TGI,786-0 renal,> 11100 nM
same,GI50,HCC-2998 colon,306 nM
same,TGI,HCC-2998 colon,6230 nM
same,GI50,HL-60(TB) leukemia,296 nM
same,TGI,HL-60(TB) leukemia,1070 nM
same,GI50,SK-MEL-28 melanoma,1060 nM
same,TGI,SK-MEL-28 melanoma,> 11100 nM
same,GI50,OVCAR-5 ovarian,519 nM
same,TGI,OVCAR-5 ovarian,> 11100 nM
same,GI50,DU-145 prostate,401 nM
same,TGI,DU-145 prostate,2870 nM
same,GI50,COLO 205 colon,250 nM
same,TGI,COLO 205 colon,773 nM
same,GI50,CAKI-1 renal,7810 nM
same,TGI,CAKI-1 renal,> 11100 nM
same,GI50,T-47D breast,658 nM
same,TGI,T-47D breast,> 11100 nM
same,GI50,SK-MEL-5 melanoma,356 nM
same,TGI,SK-MEL-5 melanoma,> 11100 nM
same,GI50,CCRF-CEM leukemia,413 nM
same,TGI,CCRF-CEM leukemia,> 11100 nM
same,GI50,MALME-3M melanoma,736 nM
same,TGI,MALME-3M melanoma,> 11100 nM
same,GI50,RXF 393 renal,395 nM
same,TGI,RXF 393 renal,4210 nM
same,GI50,OVCAR-4 ovarian,> 11100 nM
same,TGI,OVCAR-4 ovarian,> 11100 nM
same,GI50,NCI-H522 lung,178 nM
same,TGI,NCI-H522 lung,428 nM
same,GI50,M14 melanoma,242 nM
same,TGI,M14 melanoma,1560 nM
same,GI50,RPMI-8226 leukemia,374 nM
same,TGI,RPMI-8226 leukemia,> 11100 nM
same,GI50,OVCAR-3 ovarian,344 nM
same,TGI,OVCAR-3 ovarian,2660 nM
same,GI50,MDA-MB-231 breast,1510 nM
same,TGI,MDA-MB-231 breast,> 11100 nM
same,GI50,MDA-MB-435,59.9 nM
same,TGI,MDA-MB-435,286 nM
same,GI50,UACC-62 melanoma,488 nM
same,TGI,UACC-62 melanoma,> 11100 nM
same,GI50,SK-MEL-2 melanoma,303 nM
same,TGI,SK-MEL-2 melanoma,902 nM
same,GI50,SF-539 CNS,305 nM
same,TGI,SF-539 CNS,1860 nM
same,GI50,UO-31 renal,954 nM
same,TGI,UO-31 renal,> 11100 nM
same,GI50,SW-620 colon,301 nM
same,TGI,SW-620 colon,> 11100 nM
same,GI50,HT29 colon,117 nM
same,TGI,HT29 colon,996 nM
same,GI50,OVCAR-8 ovarian,506 nM
same,TGI,OVCAR-8 ovarian,> 11100 nM
same,GI50,SF-295 CNS,314 nM
same,TGI,SF-295 CNS,2190 nM
same,GI50,HS 578T breast,399 nM
same,TGI,HS 578T breast,4300 nM
same,GI50,LOX IMVI melanoma,476 nM
same,TGI,LOX IMVI melanoma,> 11100 nM
same,GI50,IGROV1 ovarian,778 nM
same,TGI,IGROV1 ovarian,> 11100 nM
same,GI50,BT-549 breast,553 nM
same,TGI,BT-549 breast,> 11100 nM
same,GI50,EKVX NSCLC,747 nM
same,TGI,EKVX NSCLC,> 11100 nM
same,GI50,NCI-H226 lung,6350 nM
same,TGI,NCI-H226 lung,> 11100 nM
same,GI50,SF-268 CNS,481 nM
same,TGI,SF-268 CNS,> 11100 nM
same,GI50,A498 renal,303 nM
same,TGI,A498 renal,2270 nM
same,GI50,NCI-H460 lung,302 nM
same,TGI,NCI-H460 lung,> 11100 nM
same,GI50,MOLT-4 leukemia,533 nM
same,TGI,MOLT-4 leukemia,> 11100 nM
same,GI50,SNB-19 CNS,553 nM
same,TGI,SNB-19 CNS,> 11100 nM
same,GI50,ACHN renal,512 nM
same,TGI,ACHN renal,> 11100 nM
same,GI50,HOP-62 NSCLC,490 nM
same,TGI,HOP-62 NSCLC,9980 nM
same,GI50,NCI-H23 lung,548 nM
same,TGI,NCI-H23 lung,> 11100 nM
same,GI50,SN12C renal,1570 nM
same,TGI,SN12C renal,> 11100 nM
same,GI50,A549 NSCLC,508 nM
same,TGI,A549 NSCLC,> 11100 nM
same,GI50,MCF7 breast,85.9 nM
same,TGI,MCF7 breast,> 11100 nM
same,GI50,HCT-15 colon,429 nM
same,TGI,HCT-15 colon,> 11100 nM
same,GI50,HCT-116 colon,201 nM
same,TGI,HCT-116 colon,> 11100 nM
same,GI50,PC-3 prostate,406 nM
same,TGI,PC-3 prostate,> 11100 nM
same,GI50,NCI/ADR-RES ovarian,4380 nM
same,TGI,NCI/ADR-RES ovarian,> 11100 nM
same,GI50,TK-10 renal,612 nM
same,TGI,TK-10 renal,> 11100 nM
same,GI50,UACC-257 melanoma,1030 nM
same,TGI,UACC-257 melanoma,> 11100 nM
same,GI50,SK-OV-3 ovarian,420 nM
same,TGI,SK-OV-3 ovarian,> 11100 nM
same,GI50,K-562 leukemia,356 nM
same,TGI,K-562 leukemia,> 11100 nM
same,GI50,KM12 colon,254 nM
same,TGI,KM12 colon,> 11100 nM
